According to patent US20240358692A1, “TREATMENT OF SCLERODERMA” (Aisa Pharma, Inc., priority 2023, published 2024):

Tested on: participants with SSc-RP
Assay: Average duration of weekly RP attacks (minutes), patient diary
Assay type: in vivo, human
Source text: The absolute change in average duration of weekly RP attacks from baseline to the end of each dosing period was and will be a secondary outcome variable. The sponsor-developed participant-informed diary was and will be used to record data. Average duration of weekly RP attacks is defined as the total duration of RP attacks divided by total number of RP attacks within the last 7 days of each dosing period. Total duration of RP attacks during the last 7 days of screening period divided by the total number of RP attacks will be used as baseline for the analysis of all periods. The variable will be calculated similar to frequency data as before.

[1] = Cilnidipine 10 mg, by Baseline RCS, first RCS subgroup of table (not named), ITT Population - Part A
[2] = Cilnidipine 10 mg, by Baseline RCS, first subgroup of table, ITT Population - Part A
[3] = Cilnidipine 20 mg, Excluding Outliers, ITT Population - Part A
[4] = Cilnidipine 20 mg, Excluding Outliers, by Baseline RCS, first RCS subgroup of table (not named), ITT Population - Part A
[5] = Cilnidipine 20 mg, by Baseline RCS, first RCS subgroup of table (not named), ITT Population - Part A
[6] = Cilnidipine 20 mg, by Baseline RCS, first subgroup of table, ITT Population - Part A
[7] = Pooled Cilnidipine 10 mg and Cilnidipine 10 mg + Tadalafil 5 mg, Excluding Outliers, ITT Population - Part A
[8] = Pooled Cilnidipine 10 mg and Cilnidipine 10 mg + Tadalafil 5 mg, ITT Population - Part A
[9] = Pooled Cilnidipine 10 mg and Cilnidipine 10 mg + Tadalafil 5 mg, by Baseline RCS, first subgroup of table, ITT Population - Part A
[10] = Pooled Cilnidipine 10 mg and Cilnidipine 10 mg + Tadalafil 5 mg, by Baseline RCS, second subgroup of table, ITT Population - Part A
[11] = Pooled Cilnidipine 20 mg and Cilnidipine 20 mg + Tadalafil 5 mg, Excluding Outliers, ITT Population - Part A
[12] = Pooled Cilnidipine 20 mg and Cilnidipine 20 mg + Tadalafil 5 mg, Excluding Outliers, by Baseline RCS, second RCS subgroup of table (not named), ITT Population - Part A
[13] = Pooled Cilnidipine 20 mg and Cilnidipine 20 mg + Tadalafil 5 mg, by Baseline RCS, first subgroup of table, ITT Population - Part A
[14] = Pooled Cilnidipine 20 mg and Cilnidipine 20 mg + Tadalafil 5 mg, by Baseline RCS, second RCS subgroup of table (not named), ITT Population - Part A
[15] = Pooled Cilnidipine 20 mg and Cilnidipine 20 mg + Tadalafil 5 mg, by Baseline RCS, second subgroup of table, ITT Population - Part A
[16] = Pooled Cilnidipine 20 mg and Cilnidipine 20 mg + Tadalafil 5 mg, last 7 days of dosing period, ITT Part A
[17] = Pooled Cilnidipine, Excluding Outliers, ITT Population - Part A
[18] = Pooled Cilnidipine, Excluding Outliers, by Baseline RCS, first RCS subgroup of table (not named), ITT Population - Part A
[19] = Pooled Cilnidipine, ITT Population - Part A
[20] = Pooled Cilnidipine, ITT Population - Part A, last 7 days of dosing period
[21] = Pooled Cilnidipine, by Baseline RCS, first RCS subgroup of table (not named), ITT Population - Part A
[22] = Pooled Cilnidipine, by Baseline RCS, first subgroup of table, ITT Population - Part A
[23] = Pooled Cilnidipine, excluding outliers, 1st baseline RCS subgroup, ITT Part A

COCCOC(=O)C1=C(C)NC(C)=C(C(=O)OC/C=C/c2ccccc2)C1c1cccc([N+](=O)[O-])c1 (stereo not drawn) [Cilnidipine]
Average Duration of Weekly Symptomatic RP Attacks Percent Change from Baseline, Median (Cilnidipine 10 mg, ITT Part A): −34.60%
Average Duration of weekly symptomatic RP attacks, Mean [1]: 31.64 min
Average Duration of weekly symptomatic RP attacks, Median [1]: 31.64 min
Change from Baseline in average duration of weekly symptomatic RP attacks, Mean [1]: -16.74 min
Change from Baseline in average duration of weekly symptomatic RP attacks, Median [1]: -16.74 min
Percent Change from Baseline in average duration of weekly symptomatic RP attacks, Mean [1]: −34.60%
Percent Change from Baseline in average duration of weekly symptomatic RP attacks, Median [1]: −34.60%
Average Duration of Weekly RP Attacks (All Attacks), Mean [2]: 31.52 min
Average Duration of Weekly RP Attacks (All Attacks), Median [2]: 31.52 min
Average Duration of weekly symptomatic RP attacks, Mean (Cilnidipine 10 mg, last 7 days of dosing period, ITT Part A): 31.64 min
Duration (change) (Cilnidipine 20 mg (n = 3)): −20%
Average Duration of Weekly RP Attacks (All Attacks), Change from Baseline, Mean [3]: -1.09 min
Average Duration of Weekly RP Attacks (All Attacks), Change from Baseline, Median [3]: -1.09 min
Average Duration of Weekly RP Attacks (All Attacks), Percent Change from Baseline, Mean [3]: −24.97%
Average Duration of Weekly RP Attacks (All Attacks), Percent Change from Baseline, Median [3]: −24.97%
Average Duration of weekly symptomatic RP attacks, Mean [3]: 16.73 min
Average Duration of weekly symptomatic RP attacks, Median [3]: 16.73 min
Change from Baseline in average duration of weekly symptomatic RP attacks, Mean [3]: -3.13 min
Change from Baseline in average duration of weekly symptomatic RP attacks, Median [3]: -3.13 min
Percent Change from Baseline in average duration of weekly symptomatic RP attacks, Mean [3]: −31.05%
Percent Change from Baseline in average duration of weekly symptomatic RP attacks, Median [3]: −31.05%
Average Duration of weekly symptomatic RP attacks, Mean [4]: 16.73 min
Average Duration of weekly symptomatic RP attacks, Median [4]: 16.73 min
Change from Baseline in average duration of weekly symptomatic RP attacks, Mean [4]: -3.13 min
Change from Baseline in average duration of weekly symptomatic RP attacks, Median [4]: -3.13 min
Percent Change from Baseline in average duration of weekly symptomatic RP attacks, Mean [4]: −31.05%
Percent Change from Baseline in average duration of weekly symptomatic RP attacks, Median [4]: −31.05%
Average Duration of Weekly Symptomatic RP Attacks Change from Baseline, Mean (Cilnidipine 20 mg, ITT Part A): -3.13 min
Average Duration of Weekly Symptomatic RP Attacks Change from Baseline, Median (Cilnidipine 20 mg, ITT Part A): -3.13 min
Average Duration of Weekly Symptomatic RP Attacks Percent Change from Baseline, Mean (Cilnidipine 20 mg, ITT Part A): −31.05%
Average Duration of Weekly Symptomatic RP Attacks Percent Change from Baseline, Median (Cilnidipine 20 mg, ITT Part A): −31.05%
Average Duration of weekly symptomatic RP attacks, Mean [5]: 16.73 min
Average Duration of weekly symptomatic RP attacks, Median [5]: 16.73 min
Change from Baseline in average duration of weekly symptomatic RP attacks, Mean [5]: -3.13 min
Change from Baseline in average duration of weekly symptomatic RP attacks, Median [5]: -3.13 min
Percent Change from Baseline in average duration of weekly symptomatic RP attacks, Mean [5]: −31.05%
Percent Change from Baseline in average duration of weekly symptomatic RP attacks, Median [5]: −31.05%
Average Duration of Weekly RP Attacks (All Attacks), Mean [6]: 16.73 min
Average Duration of Weekly RP Attacks (All Attacks), Median [6]: 16.73 min
Average Duration of weekly symptomatic RP attacks, Median [7]: 31.64 min
Change from Baseline in average duration of weekly symptomatic RP attacks, Mean [7]: -12.11 min
Change from Baseline in average duration of weekly symptomatic RP attacks, Median [7]: -16.74 min
Percent Change from Baseline in average duration of weekly symptomatic RP attacks, Mean [7]: −22.40%
Percent Change from Baseline in average duration of weekly symptomatic RP attacks, Median [7]: −33.84%
Average Duration of Weekly Symptomatic RP Attacks Change from Baseline, Median (Pooled Cilnidipine 10 mg and Cilnidipine 10 mg + Tadalafil 5 mg, ITT Part A): -16.74 min
Average Duration of Weekly RP Attacks (All Attacks), Change from Baseline, Median [8]: -8.48 min
Average Duration of Weekly RP Attacks (All Attacks), Percent Change from Baseline, Median [8]: −21.20%
Percent Change from Baseline in average duration of weekly symptomatic RP attacks, Mean (Pooled Cilnidipine 10 mg and Cilnidipine 10 mg + Tadalafil 5 mg, by Baseline RCS, first RCS subgroup of table (not named), ITT Population - Part A): −16.67%
Average Duration of Weekly RP Attacks (All Attacks), Change from Baseline, Mean [9]: -4.13 min
Average Duration of Weekly RP Attacks (All Attacks), Change from Baseline, Median [9]: -4.13 min
Average Duration of Weekly RP Attacks (All Attacks), Mean [9]: 24.76 min
Average Duration of Weekly RP Attacks (All Attacks), Median [9]: 24.76 min
Average Duration of Weekly RP Attacks (All Attacks), Percent Change from Baseline, Mean [9]: −9.97%
Average Duration of Weekly RP Attacks (All Attacks), Percent Change from Baseline, Median [9]: −9.97%
Average Duration of Weekly RP Attacks (All Attacks), Change from Baseline, Mean [10]: -20.38 min
Average Duration of Weekly RP Attacks (All Attacks), Change from Baseline, Median [10]: -20.38 min
Average Duration of Weekly RP Attacks (All Attacks), Mean [10]: 34.17 min
Average Duration of Weekly RP Attacks (All Attacks), Median [10]: 34.17 min
Average Duration of Weekly RP Attacks (All Attacks), Percent Change from Baseline, Mean [10]: −37.36%
Average Duration of Weekly RP Attacks (All Attacks), Percent Change from Baseline, Median [10]: −37.36%
Average Duration of weekly symptomatic RP attacks, Mean (Pooled Cilnidipine 10 mg and Cilnidipine 10 mg + Tadalafil 5 mg, last 7 days of dosing period, ITT Part A): 29.46 min
Change from Baseline in average duration of weekly symptomatic RP attacks, Mean [11]: -7.51 min
Change from Baseline in average duration of weekly symptomatic RP attacks, Median [11]: -3.55 min
Percent Change from Baseline in average duration of weekly symptomatic RP attacks, Mean [11]: −16.40%
Percent Change from Baseline in average duration of weekly symptomatic RP attacks, Median [11]: −7.30%
Change from Baseline in average duration of weekly symptomatic RP attacks, Mean [12]: -27.00 min
Change from Baseline in average duration of weekly symptomatic RP attacks, Median [12]: -27.00 min
Percent Change from Baseline in average duration of weekly symptomatic RP attacks, Mean [12]: −30.00%
Percent Change from Baseline in average duration of weekly symptomatic RP attacks, Median [12]: −30.00%
Average Duration of Weekly RP Attacks (All Attacks), Change from Baseline, Mean [13]: 0.00 min
Average Duration of Weekly RP Attacks (All Attacks), Change from Baseline, Median [13]: 2.16 min
Average Duration of Weekly RP Attacks (All Attacks), Mean [13]: 15.91 min
Average Duration of Weekly RP Attacks (All Attacks), Median [13]: 14.27 min
Average Duration of Weekly RP Attacks (All Attacks), Percent Change from Baseline, Mean [13]: −10.70%
Average Duration of Weekly RP Attacks (All Attacks), Percent Change from Baseline, Median [13]: 17.86%
Change from Baseline in average duration of weekly symptomatic RP attacks, Mean [14]: -27.00 min
Change from Baseline in average duration of weekly symptomatic RP attacks, Median [14]: -27.00 min
Percent Change from Baseline in average duration of weekly symptomatic RP attacks, Mean [14]: −30.00%
Percent Change from Baseline in average duration of weekly symptomatic RP attacks, Median [14]: −30.00%
Average Duration of Weekly RP Attacks (All Attacks), Change from Baseline, Mean [15]: -19.09 min
Average Duration of Weekly RP Attacks (All Attacks), Change from Baseline, Median [15]: -19.09 min
Average Duration of Weekly RP Attacks (All Attacks), Mean [15]: 62.73 min
Average Duration of Weekly RP Attacks (All Attacks), Median [15]: 62.73 min
Average Duration of Weekly RP Attacks (All Attacks), Percent Change from Baseline, Mean [15]: −23.33%
Average Duration of Weekly RP Attacks (All Attacks), Percent Change from Baseline, Median [15]: −23.33%
Average Duration of weekly symptomatic RP attacks, Mean [16]: 27.98 min
Average Duration of weekly symptomatic RP attacks, Median [16]: 22.96 min
Duration (change) (Pooled Cilnidipine (n = 7)): 20%
Average Duration of weekly symptomatic RP attacks, Mean [17]: 21.70 min
Average Duration of weekly symptomatic RP attacks, Median [17]: 30.45 min
Percent Change from Baseline in average duration of weekly symptomatic RP attacks, Median [17]: −34.60%
Average Duration of weekly symptomatic RP attacks, Mean [18]: 21.70 min
Average Duration of weekly symptomatic RP attacks, Median [18]: 30.45 min
Change from Baseline in average duration of weekly symptomatic RP attacks, Mean [18]: -7.67 min
Change from Baseline in average duration of weekly symptomatic RP attacks, Median [18]: -10.33 min
Percent Change from Baseline in average duration of weekly symptomatic RP attacks, Mean [18]: −32.23%
Percent Change from Baseline in average duration of weekly symptomatic RP attacks, Median [18]: −34.60%
Average Duration of Weekly Symptomatic RP Attacks Change from Baseline, Mean (Pooled Cilnidipine, ITT Part A): -7.67 min
Average Duration of Weekly Symptomatic RP Attacks Change from Baseline, Median (Pooled Cilnidipine, ITT Part A): -10.33 min
Average Duration of Weekly Symptomatic RP Attacks Percent Change from Baseline, Mean (Pooled Cilnidipine, ITT Part A): −32.23%
Average Duration of Weekly Symptomatic RP Attacks Percent Change from Baseline, Median (Pooled Cilnidipine, ITT Part A): −34.60%
Average Duration of Weekly RP Attacks (All Attacks), Change from Baseline, Mean [19]: -3.55 min
Average Duration of Weekly RP Attacks (All Attacks), Change from Baseline, Median [19]: -7.63 min
Average Duration of Weekly RP Attacks (All Attacks), Percent Change from Baseline, Mean [19]: −23.71%
Average Duration of Weekly RP Attacks (All Attacks), Percent Change from Baseline, Median [19]: −21.20%
Average Duration of Weekly RP Attacks (All Attacks), Mean [20]: 21.66 min
Average Duration of Weekly RP Attacks (All Attacks), Median [20]: 30.45 min
Average Duration of weekly symptomatic RP attacks, Mean [21]: 21.70 min
Average Duration of weekly symptomatic RP attacks, Median [21]: 30.45 min
Change from Baseline in average duration of weekly symptomatic RP attacks, Mean [21]: -7.67 min
Change from Baseline in average duration of weekly symptomatic RP attacks, Median [21]: -10.33 min
Percent Change from Baseline in average duration of weekly symptomatic RP attacks, Mean [21]: −32.23%
Percent Change from Baseline in average duration of weekly symptomatic RP attacks, Median [21]: −34.60%
Average Duration of Weekly RP Attacks (All Attacks), Mean [22]: 21.66 min
Average Duration of Weekly RP Attacks (All Attacks), Median [22]: 30.45 min
Average duration of weekly RP attacks, Change from Baseline, Median [23]: -7.63 min
Average duration of weekly RP attacks, Percent Change from Baseline, Mean [23]: −23.71%
